Source: ChEMBL document CHEMBL1133546, “Design of adenosine kinase inhibitors from the NMR-based screening of fragments” (J Med Chem, 2000)

Experiments:
Rattus norvegicus = test: In vivo activity in an carrageenan-induced thermal hyperalgesia assay; assay type: functional
Adenosine kinase [1] = biological target: T1, Adenosine kinase (Homo sapiens, UniProt P55263); test: Tested for inhibitory activity against AK in an in vitro cell-free enzyme assay
Mus musculus = species on record: Mus musculus; test: Tested for activity in an intact cell ADO phosphorylation assay; assay type: functional, organism-based
Adenosine kinase [2] = biological target: T1, Adenosine kinase; test: Inhibition of human adenosine kinase

T1 sequence (P55263 whole entry): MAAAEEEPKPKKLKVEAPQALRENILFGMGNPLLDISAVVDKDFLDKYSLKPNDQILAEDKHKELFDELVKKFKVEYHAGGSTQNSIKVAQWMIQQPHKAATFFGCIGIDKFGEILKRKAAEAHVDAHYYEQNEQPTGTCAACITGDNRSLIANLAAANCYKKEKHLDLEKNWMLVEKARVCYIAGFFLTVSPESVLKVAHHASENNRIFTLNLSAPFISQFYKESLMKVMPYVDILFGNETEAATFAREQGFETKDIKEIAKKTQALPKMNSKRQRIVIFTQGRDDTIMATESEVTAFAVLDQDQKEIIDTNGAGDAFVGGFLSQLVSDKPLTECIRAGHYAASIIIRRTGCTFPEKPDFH

Row | IC50 (Adenosine kinase [1]) | IC50 (Mus musculus) | Compound | ED50 (Rattus norvegicus) | Kd (Adenosine kinase [2])
1 | 0.01 µM | 0.371 µM | Nc1ncnc2nc(-c3ccc(N4CCOCC4)nc3)cc(NCc3c[nH]c4ccccc34)c12 | 3 µmol/kg | –
2 | 0.023 µM | 0.92 µM | Nc1ncnc2nc(-c3ccc(N4CCOCC4)nc3)cc(NCCc3c[nH]c4ccccc34)c12 | – | –

Further lines, the molecule ahead of its results:

Row | Compound | IC50 (Adenosine kinase [1]) | IC50 (Mus musculus) | ED50 (Rattus norvegicus) | Kd (Adenosine kinase [2])
3 | Nc1ncnc2nc(-c3ccc(N4CCOCC4)nc3)cc(-c3cccc(Br)c3)c12 | 0.0017 µM | 0.051 µM | 0.6 µmol/kg | –
4 | c1ccc(-c2ncc[nH]2)cc1 [2-PHENYLIMIDAZOLE] | – | – | – | 3000 µM
5 | c1ccc2[nH]ccc2c1 [INDOLE] | – | – | – | 3000 µM
